Measurements reported in PubChem BioAssay (NCI).
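Where inhibition never reached the appropriate level, the endpoint shown equals the highest concentration tested. Otherwise, values were interpolated linearly from a five-concentration, 48-hour dose response in 96-well plates. GI50 marks 50% less growth. TGI marks complete inhibition of growth.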

What was measured:
Test in all cases: growth of human tumour cells (NCI), 48 h
[1] = test system: HS 578T breast
[2] = test system: HL-60(TB) leukemia
[3] = test system: MOLT-4 leukemia
[4] = test system: SK-MEL-2 melanoma
[5] = test system: HOP-92 NSCLC
[6] = test system: MDA-MB-435
[7] = test system: HCC-2998 colon
[8] = test system: MALME-3M melanoma
[9] = test system: SF-539 CNS
[10] = test system: NCI-H226 lung
[11] = test system: SN12C renal
[12] = test system: 786-0 renal
[13] = test system: SW-620 colon
[14] = test system: NCI/ADR-RES ovarian
[15] = test system: HT29 colon
[16] = test system: U251 CNS
[17] = test system: EKVX NSCLC
[18] = test system: A498 renal
[19] = test system: OVCAR-3 ovarian
[20] = test system: RPMI-8226 leukemia
[21] = test system: UACC-257 melanoma
[22] = test system: OVCAR-4 ovarian
[23] = test system: KM12 colon
[24] = test system: SF-268 CNS
[25] = test system: MDA-N
[26] = test system: SNB-19 CNS
[27] = test system: SR leukemia
[28] = test system: MDA-MB-231 breast
[29] = test system: SNB-75 CNS
[30] = test system: SK-MEL-28 melanoma
[31] = test system: UO-31 renal
[32] = test system: A549 NSCLC
[33] = test system: SK-MEL-5 melanoma
[34] = test system: OVCAR-5 ovarian
[35] = test system: LOX IMVI melanoma
[36] = test system: TK-10 renal
[37] = test system: T-47D breast
[38] = test system: HCT-15 colon
[39] = test system: CCRF-CEM leukemia
[40] = test system: NCI-H23 lung
[41] = test system: HOP-62 NSCLC
[42] = test system: DU-145 prostate
[43] = test system: PC-3 prostate
[44] = test system: SK-OV-3 ovarian
[45] = test system: UACC-62 melanoma
[46] = test system: ACHN renal
[47] = test system: OVCAR-8 ovarian
[48] = test system: K-562 leukemia
[49] = test system: NCI-H460 lung
[50] = test system: COLO 205 colon
[51] = test system: SF-295 CNS
[52] = test system: MCF7 breast
[53] = test system: M14 melanoma

SMILES: CC[n+]1oc(C(=O)c2ccc(Cl)cc2)c(-c2ccccc2)c1-c1ccccc1.[Cl][Fe]([Cl])([Cl])[Cl]
- GI50 [1]: 34.5 µM
- TGI [1]: > 100 µM
- GI50 [2]: 83.6 µM
- TGI [2]: > 100 µM
- GI50 [3]: 47.2 µM
- TGI [3]: > 100 µM
- GI50 [4]: 30.8 µM
- TGI [4]: 85.9 µM
- GI50 [5]: 27.1 µM
- TGI [5]: 62.9 µM
- GI50 [6]: 22.3 µM
- TGI [6]: 80.5 µM
- GI50 [7]: 60.8 µM
- TGI [7]: > 100 µM
- GI50 [8]: 39.7 µM
- TGI [8]: > 100 µM
- GI50 [9]: > 100 µM
- TGI [9]: > 100 µM
- GI50 [10]: 75.2 µM
- TGI [10]: > 100 µM
- GI50 [11]: 83.5 µM
- TGI [11]: > 100 µM
- GI50 [12]: 91.8 µM
- TGI [12]: > 100 µM
- GI50 [13]: > 100 µM
- TGI [13]: > 100 µM
- GI50 [14]: > 100 µM
- TGI [14]: > 100 µM
- GI50 [15]: 41.8 µM
- TGI [15]: > 100 µM
- GI50 [16]: 6.63 µM
- TGI [16]: > 100 µM
- GI50 [17]: 30.4 µM
- TGI [17]: > 100 µM
- GI50 [18]: 22.2 µM
- TGI [18]: 75.1 µM
- GI50 [19]: 23.1 µM
- TGI [19]: 56.2 µM
- GI50 [20]: 19.6 µM
- TGI [20]: 54.2 µM
- TGI [21]: 15.5 µM
- GI50 [22]: 65.7 µM
- TGI [22]: > 100 µM
- GI50 [23]: 89.9 µM
- TGI [23]: > 100 µM
- GI50 [24]: 36.1 µM
- TGI [24]: > 100 µM
- GI50 [25]: 28.7 µM
- TGI [25]: > 100 µM
- GI50 [26]: > 100 µM
- TGI [26]: > 100 µM
- GI50 [27]: 33 µM
- TGI [27]: > 100 µM
- GI50 [28]: 36.5 µM
- TGI [28]: > 100 µM
- GI50 [29]: 30.4 µM
- TGI [29]: > 100 µM
- GI50 [30]: 38 µM
- TGI [30]: > 100 µM
- GI50 [31]: 2.23 µM
- TGI [31]: 21.5 µM
- GI50 [32]: 22.1 µM
- TGI [32]: 68 µM
- GI50 [33]: 19.5 µM
- TGI [33]: 45.8 µM
- GI50 [34]: 82.4 µM
- TGI [34]: > 100 µM
- GI50 [35]: 1.82 µM
- TGI [35]: > 100 µM
- GI50 [36]: 33.4 µM
- TGI [36]: > 100 µM
- GI50 [37]: 0.462 µM
- TGI [37]: 35.1 µM
- GI50 [38]: 72.6 µM
- TGI [38]: > 100 µM
- GI50 [39]: 14.8 µM
- TGI [39]: 39.4 µM
- GI50 [40]: 45.7 µM
- TGI [40]: > 100 µM
- GI50 [41]: 29.7 µM
- TGI [41]: > 100 µM
- GI50 [42]: 18.9 µM
- TGI [42]: 75 µM
- GI50 [43]: 31.4 µM
- TGI [43]: > 100 µM
- GI50 [44]: 46.7 µM
- TGI [44]: > 100 µM
- GI50 [45]: 63.8 µM
- TGI [45]: > 100 µM
- GI50 [46]: 33.5 µM
- TGI [46]: 99.3 µM
- GI50 [47]: 45.5 µM
- TGI [47]: > 100 µM
- GI50 [48]: > 100 µM
- TGI [48]: > 100 µM
- GI50 [49]: 43.2 µM
- TGI [49]: > 100 µM
- GI50 [50]: 50.7 µM
- TGI [50]: > 100 µM
- GI50 [51]: 53.1 µM
- TGI [51]: > 100 µM
- GI50 [52]: 17.4 µM
- TGI [52]: 65.5 µM
- GI50 [53]: 52.5 µM
- TGI [53]: > 100 µM
